Tests used:
[1] = biological target: Fibroblast growth factor receptor 1 (Homo sapiens, UniProt P11362); assay: Inhibition of human recombinant FGFR1
[2] = biological target: Vascular endothelial growth factor receptor 2 (Homo sapiens, UniProt P35968)
[3] = biological target: Platelet-derived growth factor receptor beta (Homo sapiens, UniProt P09619); assay: Inhibition of human recombinant PDGFRbeta
[4] = Inhibition of VEGF-mediated proliferation of HMVEC after 72 hrs; assay type: functional, cell-based; settings: Homo sapiens
[5] = AUC in mouse at 20 mg/kg, po; assay type: ADME, organism-based; design: dose 20 mg/kg, route oral; settings: plasma
MV4-11 [6] = assay: Antitumor activity against PDGFRbeta expressing human MV4-11 cells xenografted SCID-NOD mouse assessed as tumor growth inhibition at 30 mg/kg/day, po; assay type: functional; settings: read-out: TGI
[7] = Antitumor activity against VEGFR expressing human KM12L4A cells xenografted nude mouse assessed as tumor growth inhibition at 10 mg/kg/day, po; assay type: functional; settings: read-out: TGI
DU-145 [8] = assay: Antitumor activity against PDGFRbeta expressing human DU145 cells xenografted nude mouse assessed as tumor growth inhibition at 30 mg/kg/day, po; assay type: functional; settings: read-out: TGI
MV4-11 [9] = assay: Antitumor activity against human MV4-11 cells xenografted SCID-NOD mouse; assay type: functional
MV4-11 [10] = assay: Antitumor activity against FLT3 ITD expressing human MV4-11 cells xenografted SCID-NOD mouse assessed as tumor growth inhibition at 1 mg/kg/day, po; assay type: functional; settings: read-out: TGI
MV4-11 [11] = assay: Antitumor activity against cKit expressing human MV4-11 cells xenografted SCID-NOD mouse assessed as tumor growth inhibition at 10 mg/kg/day, po; assay type: functional; settings: read-out: TGI
[12] = AUC in rat at 20 mg/kg, po; assay type: ADME, organism-based; design: dose 20 mg/kg, route oral; settings: plasma
[13] = Cmax in rat at 20 mg/kg, po; assay type: ADME, organism-based; design: dose 20 mg/kg, route oral; settings: in vivo
[14] = Oral bioavailability in rat at 20 mg/kg; assay type: ADME, organism-based; settings: in vivo
DU-145 [15] = assay: Antitumor activity against human DU145 cells xenografted nude mouse; assay type: functional
[16] = Cmax in mouse at 20 mg/kg, po; assay type: ADME, organism-based; design: dose 20 mg/kg, route oral; settings: in vivo
MV4-11 [17] = assay: Antitumor activity against VEGFR expressing human MV4-11 cells xenografted SCID-NOD mouse assessed as tumor growth inhibition at 5 mg/kg/day, po; assay type: functional; settings: read-out: TGI
[18] = Clearance in rat at 5 mg/kg, iv; assay type: ADME, organism-based; design: dose 5 mg/kg, route intravenous; settings: in vivo
[19] = Half life in mouse at 5 mg/kg, iv; assay type: ADME, organism-based; design: dose 5 mg/kg, route intravenous; settings: in vivo
DU-145 [20] = assay: Antitumor activity against FGFR expressing human DU145 cells xenografted nude mouse assessed as tumor growth inhibition at 100 mg/kg/day, po; assay type: functional; settings: read-out: TGI
[21] = Volume of distribution at steady state in rat at 5 mg/kg, iv; assay type: ADME, organism-based; design: dose 5 mg/kg, route intravenous; settings: in vivo, read-out: Vdss
[22] = Antitumor activity against human KM12L4A cells xenografted nude mouse; assay type: functional
[23] = Oral bioavailability in mouse at 20 mg/kg; assay type: ADME, organism-based; settings: in vivo
[24] = Half life in rat at 5 mg/kg, iv; assay type: ADME, organism-based; design: dose 5 mg/kg, route intravenous; settings: in vivo
Mus musculus [25] = assay: Antiangiogenic activity in BDF1 mouse Matrigel model assessed as inhibition of bFGF-mediated angiogenesis at 3 mg/kg, po for 8 days by colorimetric assay; assay type: functional; design: scale not given: the % may be the effect or the level left
[26] = Clearance in mouse at 5 mg/kg, iv; assay type: ADME, organism-based; design: dose 5 mg/kg, route intravenous; settings: in vivo
[27] = Volume of distribution at steady state in mouse at 5 mg/kg, iv; assay type: ADME, organism-based; design: dose 5 mg/kg, route intravenous; settings: in vivo, read-out: Vdss
Mus musculus [28] = species on record: Mus musculus; assay: Antiangiogenic activity in BDF1 mouse Matrigel model assessed as inhibition of bFGF-mediated angiogenesis; assay type: functional
[29] = Antitumor activity against PDGFRbeta expressing human KM12L4A cells xenografted nude mouse assessed as tumor growth inhibition at 100 mg/kg/day, po; assay type: functional; settings: read-out: TGI
DU-145 [30] = assay: Antitumor activity against VEGFR expressing human DU145 cells xenografted nude mouse assessed as tumor growth inhibition at 10 mg/kg/day, po; assay type: functional; settings: read-out: TGI
[31] = Antitumor activity against PDGFRbeta expressing human KM12L4A cells xenografted nude mouse assessed as tumor growth inhibition at 30 mg/kg/day, po; assay type: functional; settings: read-out: TGI

Vascular endothelial growth factor receptor 2, sequence (P35968 whole entry): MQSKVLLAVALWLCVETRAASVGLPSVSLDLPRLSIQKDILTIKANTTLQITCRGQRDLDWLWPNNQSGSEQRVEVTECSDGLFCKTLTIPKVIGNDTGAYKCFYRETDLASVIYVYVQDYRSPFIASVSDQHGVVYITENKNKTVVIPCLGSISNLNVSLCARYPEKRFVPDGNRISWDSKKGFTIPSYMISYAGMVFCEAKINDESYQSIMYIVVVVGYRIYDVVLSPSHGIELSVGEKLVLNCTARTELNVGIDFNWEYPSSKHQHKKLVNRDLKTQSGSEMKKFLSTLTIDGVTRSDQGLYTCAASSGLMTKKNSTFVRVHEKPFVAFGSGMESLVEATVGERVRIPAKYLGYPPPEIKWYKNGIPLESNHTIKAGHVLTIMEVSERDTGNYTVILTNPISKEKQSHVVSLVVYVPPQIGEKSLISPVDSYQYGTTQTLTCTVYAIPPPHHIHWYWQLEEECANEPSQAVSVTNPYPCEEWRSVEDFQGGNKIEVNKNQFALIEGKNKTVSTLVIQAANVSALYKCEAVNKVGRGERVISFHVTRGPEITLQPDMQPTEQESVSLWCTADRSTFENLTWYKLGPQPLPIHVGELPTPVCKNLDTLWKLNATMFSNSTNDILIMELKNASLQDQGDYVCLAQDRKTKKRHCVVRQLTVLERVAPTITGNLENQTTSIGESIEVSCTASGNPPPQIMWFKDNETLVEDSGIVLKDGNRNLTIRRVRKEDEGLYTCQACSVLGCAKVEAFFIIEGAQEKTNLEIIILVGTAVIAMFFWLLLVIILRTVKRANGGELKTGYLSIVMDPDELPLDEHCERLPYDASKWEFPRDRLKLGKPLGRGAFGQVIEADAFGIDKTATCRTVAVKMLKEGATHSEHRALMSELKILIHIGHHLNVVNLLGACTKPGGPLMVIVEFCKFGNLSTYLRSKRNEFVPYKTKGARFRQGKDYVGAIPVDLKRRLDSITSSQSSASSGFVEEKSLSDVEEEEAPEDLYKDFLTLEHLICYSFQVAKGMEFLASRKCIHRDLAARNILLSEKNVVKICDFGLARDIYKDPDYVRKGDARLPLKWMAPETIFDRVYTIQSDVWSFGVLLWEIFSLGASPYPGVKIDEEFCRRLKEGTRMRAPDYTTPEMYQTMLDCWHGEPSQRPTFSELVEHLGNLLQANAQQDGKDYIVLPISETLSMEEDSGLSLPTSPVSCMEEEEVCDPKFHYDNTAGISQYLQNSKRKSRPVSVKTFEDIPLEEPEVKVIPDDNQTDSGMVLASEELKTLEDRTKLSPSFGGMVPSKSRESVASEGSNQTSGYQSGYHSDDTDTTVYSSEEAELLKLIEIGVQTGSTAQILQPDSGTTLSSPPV
Platelet-derived growth factor receptor beta, sequence (P09619 whole entry): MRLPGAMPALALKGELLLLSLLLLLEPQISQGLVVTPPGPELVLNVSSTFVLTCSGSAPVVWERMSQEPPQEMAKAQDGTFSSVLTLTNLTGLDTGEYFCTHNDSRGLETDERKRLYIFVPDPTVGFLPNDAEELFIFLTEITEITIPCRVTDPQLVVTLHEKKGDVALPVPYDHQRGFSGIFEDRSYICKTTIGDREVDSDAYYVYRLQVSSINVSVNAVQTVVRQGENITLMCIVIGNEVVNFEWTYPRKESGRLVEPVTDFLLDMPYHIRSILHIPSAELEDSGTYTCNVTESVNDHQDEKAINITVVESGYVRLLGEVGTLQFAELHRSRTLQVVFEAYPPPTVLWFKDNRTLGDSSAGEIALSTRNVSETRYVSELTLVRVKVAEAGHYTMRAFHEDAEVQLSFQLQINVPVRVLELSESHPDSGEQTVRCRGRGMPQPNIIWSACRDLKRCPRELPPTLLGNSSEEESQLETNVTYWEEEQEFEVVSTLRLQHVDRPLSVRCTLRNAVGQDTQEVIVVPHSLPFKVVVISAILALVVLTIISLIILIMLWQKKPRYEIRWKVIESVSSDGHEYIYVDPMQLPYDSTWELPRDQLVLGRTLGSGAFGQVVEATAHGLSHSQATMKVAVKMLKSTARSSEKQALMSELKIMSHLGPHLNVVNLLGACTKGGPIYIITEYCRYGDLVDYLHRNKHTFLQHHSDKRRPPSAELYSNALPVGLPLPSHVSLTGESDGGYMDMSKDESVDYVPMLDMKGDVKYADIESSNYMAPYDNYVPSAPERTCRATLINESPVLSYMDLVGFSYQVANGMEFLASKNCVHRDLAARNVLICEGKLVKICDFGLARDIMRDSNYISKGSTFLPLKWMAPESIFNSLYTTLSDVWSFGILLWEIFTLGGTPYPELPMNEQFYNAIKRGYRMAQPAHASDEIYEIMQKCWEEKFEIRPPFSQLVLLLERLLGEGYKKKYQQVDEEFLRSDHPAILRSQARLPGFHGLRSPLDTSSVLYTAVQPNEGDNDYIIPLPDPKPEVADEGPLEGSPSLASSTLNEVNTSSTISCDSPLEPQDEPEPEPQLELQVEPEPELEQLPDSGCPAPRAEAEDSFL
Fibroblast growth factor receptor 1, sequence (P11362 whole entry): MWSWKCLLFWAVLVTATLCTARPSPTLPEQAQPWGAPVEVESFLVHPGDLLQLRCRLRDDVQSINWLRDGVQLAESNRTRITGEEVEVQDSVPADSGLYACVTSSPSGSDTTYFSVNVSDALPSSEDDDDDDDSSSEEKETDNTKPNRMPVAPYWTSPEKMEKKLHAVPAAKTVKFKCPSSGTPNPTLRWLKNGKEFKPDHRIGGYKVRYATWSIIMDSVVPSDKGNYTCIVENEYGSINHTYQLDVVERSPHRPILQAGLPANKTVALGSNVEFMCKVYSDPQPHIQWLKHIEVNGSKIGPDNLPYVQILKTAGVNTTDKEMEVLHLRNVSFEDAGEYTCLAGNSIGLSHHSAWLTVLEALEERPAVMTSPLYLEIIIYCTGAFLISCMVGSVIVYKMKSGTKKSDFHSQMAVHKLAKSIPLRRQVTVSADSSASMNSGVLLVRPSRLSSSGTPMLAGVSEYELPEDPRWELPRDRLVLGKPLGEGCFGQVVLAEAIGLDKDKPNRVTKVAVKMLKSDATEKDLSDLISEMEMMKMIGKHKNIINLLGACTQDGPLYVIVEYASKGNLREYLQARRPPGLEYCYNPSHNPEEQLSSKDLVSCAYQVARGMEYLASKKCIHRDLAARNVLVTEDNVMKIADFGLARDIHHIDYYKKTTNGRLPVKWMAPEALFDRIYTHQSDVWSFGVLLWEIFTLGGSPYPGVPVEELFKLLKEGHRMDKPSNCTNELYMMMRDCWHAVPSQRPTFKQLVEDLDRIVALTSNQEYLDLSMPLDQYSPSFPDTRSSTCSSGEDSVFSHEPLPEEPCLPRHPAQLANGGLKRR

`CNc1cccc2[nH]c(=O)c(-c3nc4ccc(N5CCN(C)CC5)cc4[nH]3)c(N)c12` showed an IC50 [1] of 15 nM, an IC50 [2] of 53 nM and an IC50 [3] of 2 nM. It also gave an EC50 [4] of 17 nM.

`CN1CCN(c2ccc3nc(-c4c(N)c5cc(F)ccc5[nH]c4=O)[nH]c3c2)CC1` showed an IC50 [1] of 40 nM, an IC50 [2] of 78 nM and an IC50 [3] of 1 nM. For the same molecule, the EC50 [4] was 10 nM.

Molecule `CN1CCN(c2ccc3nc(-c4c(N)c5cc(N)ccc5[nH]c4=O)[nH]c3c2)CC1` has an IC50 [1] of 7 nM, an IC50 [2] of 19 nM and an IC50 [3] of 7 nM. It also gave an EC50 [4] of 17 nM.

Work on `CN1CCN(c2ccc3nc(-c4c(N)c5ccc(F)cc5[nH]c4=O)[nH]c3c2)CC1` yielded an IC50 [1] of 3 nM, an IC50 [2] of 14 nM and an IC50 [3] of 0.4 nM. The EC50 [4] was 34 nM.

`Cc1ccc2nc(-c3c(N)c4ccccc4[nH]c3=O)[nH]c2c1` gave an IC50 [1] of 80 nM, an IC50 [2] of 220 nM and an IC50 [3] of 30 nM. For the same molecule, the EC50 [4] was 64 nM.

With `Cc1cc2nc(-c3c(N)c4ccccc4[nH]c3=O)[nH]c2cc1C` the IC50 [1] was 70 nM, the IC50 [2] was 210 nM and the IC50 [3] was 12 nM. It also gave an EC50 [4] of 150 nM.

In the case of `CN1CCN(C(=O)c2ccc3[nH]c(-c4c(N)c5ccccc5[nH]c4=O)nc3c2)CC1`, the IC50 [1] is reported as 10 nM, the IC50 [2] is reported as 26 nM and the IC50 [3] is reported as 0.9 nM. For the same molecule, the EC50 [4] was 45 nM.

`CN1CCN(c2ccc3[nH]c(-c4c(N)c5c(F)cc(F)cc5[nH]c4=O)nc3c2)CC1` showed an IC50 [1] of 30 nM, an IC50 [2] of 130 nM and an IC50 [3] of 5 nM. It also gave an EC50 [4] of 80 nM.

Work on `CN1CCN(c2ccc3nc(-c4c(N)c5cc(F)c(N(C)C)cc5[nH]c4=O)[nH]c3c2)CC1` yielded an IC50 [1] of 1800 nM, an IC50 [2] of 5300 nM and an IC50 [3] of 30 nM. The EC50 [4] was 3300 nM.

`CN1CCN(c2cccc3[nH]c(=O)c(-c4nc5ccccc5[nH]4)c(N)c23)CC1` gave an IC50 [1] of 1 nM, an IC50 [2] of 17 nM and an IC50 [3] of 0.3 nM. For the same molecule, the EC50 [4] was 340 nM.

For `CNc1c(-c2nc3ccccc3[nH]2)c(=O)[nH]c2ccccc12`, the IC50 [1] was 120 nM, the IC50 [2] was 220 nM and the IC50 [3] was 30 nM. It also gave an EC50 [4] of 280 nM.

Work on `CN1CCN(c2ccc3[nH]c(-c4c(N)c5cc(F)c(F)cc5[nH]c4=O)nc3c2)CC1` yielded an IC50 [1] of 110 nM, an IC50 [2] of 190 nM and an IC50 [3] of 3 nM. The EC50 [4] was 480 nM.

Molecule `CN1CCCN(c2ccc3[nH]c(-c4c(N)c5ccccc5[nH]c4=O)nc3c2)CC1` has an IC50 [1] of 20 nM, an IC50 [2] of 66 nM and an IC50 [3] of 5 nM. The EC50 [4] was 25 nM.

Work on `Cn1c(=O)c(-c2nc3ccccc3[nH]2)c(O)c2ccccc21` yielded an IC50 [1] greater than 25000 nM, an IC50 [2] of 5800 nM and an IC50 [3] of 19000 nM. The EC50 [4] was 4600 nM.

`CN1CCN(c2ccc3[nH]c(-c4c(N)c5cc(Cl)ccc5[nH]c4=O)nc3c2)CC1` showed an IC50 [1] of 24 nM, an IC50 [2] of 43 nM and an IC50 [3] of 8 nM. The EC50 [4] was 39 nM.

`O=c1[nH]c2ccccc2c(NCC2CCNCC2)c1-c1nc2ccccc2[nH]1` showed an IC50 [1] of 550 nM, an IC50 [2] of 940 nM and an IC50 [3] of 0.9 nM. For the same molecule, the EC50 [4] was 100 nM.

`CN1CCN(c2ccc3nc(-c4c(N)c5cc(C(=O)NCc6ccccc6)ccc5[nH]c4=O)[nH]c3c2)CC1` showed an IC50 [1] of 10 nM, an IC50 [2] of 50 nM and an IC50 [3] of 0.1 nM. The EC50 [4] was 120 nM.

Molecule `Nc1c(-c2nc3ccc(OCCN4CCOCC4)cc3[nH]2)c(=O)[nH]c2ccccc12` has an IC50 [1] of 20 nM, an IC50 [2] of 66 nM and an IC50 [3] of 5 nM. The EC50 [4] was 37 nM.

Molecule `CN1CCN(c2ccc3[nH]c(-c4c(N)c5cccc(F)c5[nH]c4=O)nc3c2)CC1` has an IC50 [1] of 190 nM, an IC50 [2] of 560 nM and an IC50 [3] of 14 nM. The EC50 [4] was 420 nM.

`CN1CCN(c2ccc3nc(-c4c(N)c5c(F)cccc5[nH]c4=O)[nH]c3c2)CC1` [DOVITINIB] showed an AUC [5] of 6000 ng·h/mL, an inhibition in vivo at 30 mg/kg/day (MV4-11 [6]) of 96% and an inhibition in vivo at 10 mg/kg/day [7] of 44%. The inhibition in vivo at 30 mg/kg/day (DU-145 [8]) was 70%, the ED50 (MV4-11 [9]) was 3 mg/kg and the minimal effective dose (MV4-11 [9]; read-out: MED) was 1 mg/kg. The inhibition in vivo at 1 mg/kg/day (MV4-11 [10]) was 23%, the inhibition in vivo at 10 mg/kg/day (MV4-11 [11]) was 92% and the AUC [12] was 5670 ng·h/mL. It also gave a Cmax [13] of 480 ng/mL, a bioavailability [14] of 73% and an ED50 (DU-145 [15]) of 23 mg/kg. It also gave a minimal effective dose (DU-145 [15]; read-out: MED) of 30 mg/kg, a Cmax [16] of 670 ng/mL and an inhibition in vivo at 5 mg/kg/day (MV4-11 [17]) of 65%. The clearance [18] was 43 mL/min/kg, the half-life [19] was 2.7 h and the inhibition in vivo at 100 mg/kg/day (DU-145 [20]) was 86%. For the same molecule, the Vd [21] was 13 L/kg, the ED50 [22] was 17 mg/kg and the minimal effective dose ([22]; read-out: MED) was 10 mg/kg. The bioavailability [23] was 77%, the half-life [24] was 3.5 h and the Activity (Mus musculus [25]) was 54%. It also gave a clearance [26] of 42 mL/min/kg, a Vd [27] of 12 L/kg and an ED50 (Mus musculus [28]) of 3 mg/kg. For the same molecule, the inhibition in vivo at 100 mg/kg/day [29] was 95%, the inhibition in vivo at 10 mg/kg/day (DU-145 [30]) was 39% and the inhibition in vivo at 30 mg/kg/day [31] was 55%. It also gave an EC50 [4] of 13 nM.
